In brackets after ≈: the same amount, converted by molar mass. Blank lines part the entries; values can stand above or below the compound they belong to.
Assays:
[1] = Inhibition of IL-17A production in human PBMC by ELISA; assay type: functional, cell-based
[2] = Inhibition of IL-17F production in human PBMC by ELISA; assay type: functional, cell-based
[3] = Inhibition of IL-21 production in human PBMC by ELISA; assay type: functional, cell-based
[4] = Inhibition of IL-22 production in human PBMC by ELISA; assay type: functional, cell-based
[5] = system: Mus musculus; experiment: Anti-arthritis activity against glucose-6-phosphate isomerase-induced arthritis DBA/1 mouse model assessed as reduction in paw swelling clinical score at 1000 mg/kg, po; assay type: functional
[6] = cells; details: Homo sapiens, PBMC
Description: Inhibition of IL-17A secretion in human PBMC cells

[7] = molecular target: T1, Nuclear receptor ROR-gamma (Homo sapiens, UniProt P51449); experiment: Inhibition of transactivation of Gal4-tagged RORgamma (unknown origin) transfected in human HG5LN cells incubated for 18 hrs by luciferase reporter gene assay; assay type: cell-based
T1 sequence (P51449 whole entry): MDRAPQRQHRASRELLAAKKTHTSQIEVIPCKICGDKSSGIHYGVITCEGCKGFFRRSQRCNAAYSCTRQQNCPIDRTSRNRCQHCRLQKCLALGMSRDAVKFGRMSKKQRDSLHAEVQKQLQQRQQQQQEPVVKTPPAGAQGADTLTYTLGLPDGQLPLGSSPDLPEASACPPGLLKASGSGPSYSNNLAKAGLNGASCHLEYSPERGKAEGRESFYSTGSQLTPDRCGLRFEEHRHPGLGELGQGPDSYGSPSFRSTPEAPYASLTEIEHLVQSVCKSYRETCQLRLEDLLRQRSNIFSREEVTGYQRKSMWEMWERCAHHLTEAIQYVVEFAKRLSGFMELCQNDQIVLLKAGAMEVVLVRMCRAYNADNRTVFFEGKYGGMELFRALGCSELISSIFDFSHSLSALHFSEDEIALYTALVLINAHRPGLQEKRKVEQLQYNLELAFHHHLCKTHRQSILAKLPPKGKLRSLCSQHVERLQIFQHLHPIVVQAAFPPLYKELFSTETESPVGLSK

[8] = cells; details: Homo sapiens, Th17
[9] = molecular target: T1, Nuclear receptor ROR-gamma; experiment: Inhibition of human GAL4-fused RORgammat LBD transfected in Escherichia coli BL21(DE3) cell measured after 16 hrs by HTRF assay
[10] = Oral bioavailability in rat; assay type: ADME, organism-based; details: in vivo
[11] = Oral bioavailability in dog; assay type: ADME, organism-based, Canis lupus familiaris; details: in vivo
[12] = Solubility of the compound; assay type: physicochemical
[13] = Unbound fraction in human plasma; assay type: ADME, cell-free
[14] = molecular target: T1, Nuclear receptor ROR-gamma; experiment: Inhibition of RORgammat LBD (unknown origin) expressed in Sf21 cells assessed as fluorescence signal by TR-FRET assay
[15] = molecular target: T1, Nuclear receptor ROR-gamma; experiment: Inverse agonist activity at human GAL4-RORgamma […] expressed in HEK293 cells measured after 24 hrs by ligand binding assay; assay type: cell-based
[16] = molecular target: T1, Nuclear receptor ROR-gamma; experiment: Inhibition of human GAL4-fused RORgamma LBD transfected in HEK293T cell measured after 24 hrs by luciferase reporter assay; assay type: cell-based
[17] = molecular target: T1, Nuclear receptor ROR-gamma; experiment: Inhibition of human RORgammat expressed in COS7 cells by luciferase assay; assay type: cell-based
[18] = cells; details: Homo sapiens, PBMC; remark: listed apart in the source
Description: Inhibition of IL-17 production in human PBMC

[19] = molecular target: T1, Nuclear receptor ROR-gamma; experiment: Inhibition of biotinylated human RORgammat by FRET assay
[20] = molecular target: T1, Nuclear receptor ROR-gamma; experiment: Inverse agonist activity at GAL4-RORgammat LBD (unknown origin) expressed in HEK293 cells measured after 18 to 24 hrs by nuclear receptor assay; assay type: cell-based
[21] = molecular target: T2, Nuclear receptor ROR-gamma (Homo sapiens) (UniProt P51449); experiment: Inhibition of human RORgamma by TR-FRET assay relative to control
T2 sequence (whole entry): T1 sequence (P51449 whole entry)

[22] = Inhibition of IL-17 production in human Th17 cells relative to control; assay type: functional
[23] = Oral bioavailability in mouse; assay type: ADME, organism-based; details: in vivo
[24] = Half life in mouse; assay type: ADME, organism-based; details: in vivo
[25] = cells; details: Homo sapiens, PBMC, 144 h
Description: Decrease in Tc17 cell differentiation in CD8+ T cells from human PBMC cells cultured under the Tc17-skewing conditions measured after 6 days

[26] = species: Homo sapiens; experiment: tissue or blood; details: 18 h
Description: Reduction of IL17 level in human whole blood measured after 18 hrs by ELISA

[27] = species: Homo sapiens; experiment: tissue or blood; details: 18 h; remark: listed apart in the source
Description: Reduction of IL17F level in human whole blood measured after 18 hrs by ELISA

[28] = species: Homo sapiens; experiment: tissue or blood; details: 18 h; remark: listed apart in the source
Description: Reduction of IL22 level in human whole blood measured after 18 hrs by ELISA

[29] = Suppression of Th17 polarization in human CD4+ T cells cultured under Th17-skewing conditions measured after 4 days
[30] = Inhibition of IL-17A production in human PBMC derived from rheumatoid arthritis; assay type: functional, cell-based
[31] = system: Mus musculus; experiment: Anti-arthritis activity against collagen-induced arthritis DBA/1Lacj mouse model assessed as arthritis clinical score at 60 mg/kg, po twice daily from day 21 to 35 relative to control; assay type: functional; details: 504 h
[32] = system: Mus musculus; experiment: Anti-arthritis activity against collagen-induced arthritis DBA/1Lacj mouse model assessed as arthritis clinical score at 30 mg/kg, po twice daily from day 21 to 35 relative to control; assay type: functional; details: 504 h
[33] = system: Mus musculus; experiment: Anti-arthritis activity against collagen-induced arthritis DBA/1Lacj mouse model assessed as arthritis clinical score at 10 mg/kg, po twice daily from day 21 to 35 relative to control; assay type: functional; details: 504 h

- IC50 [8]: 40 nM
SMILES: O=C(Nc1ccc2c(c1)CN(S(=O)(=O)c1cccc(C(F)(F)F)c1)CCC2)c1c(F)cccc1Cl

- IC50 [9]: 2 nM
SMILES: O=C(O)c1ccc(-c2nn(C(=O)c3c(Cl)cccc3C(F)(F)F)c3cccnc23)c(F)c1

- bioavailability [10]: 34%
- bioavailability [11]: 96%
- solubility [12]: 380 µM (≈ 199 µg/mL)
- fraction unbound [13]: 0.16
SMILES: CC(=O)N1Cc2cc(S(C)(=O)=O)ccc2[C@@H]1C(=O)Nc1ccc(C(O)(C(F)(F)F)C(F)(F)F)cc1

- IC50 [14]: < 500 nM
SMILES: COc1cc2c(cc1N1CCOCC1)CC(Cc1cccc(C(F)(F)F)c1)C2=O (stereo not drawn)

- IC50 [15]: > 10000 nM
SMILES: O=C(O)CC1CN(Cc2ccc(-c3ccc(C(O)(C(F)(F)F)C(F)(F)F)cc3)cc2)CCN1Cc1ccncc1 (stereo not drawn)

- IC50 [17]: 2.1 nM
- IC50 [18]: 6.6 nM
SMILES: CCS(=O)(=O)c1ccc(CC(=O)Nc2cc(Cl)c(C3(c4noc(-c5ccc(F)cc5)n4)CC3)c(Cl)c2)cc1

- Efficacy [21]: -69%
- IC50 [8]: 180 nM
SMILES: O=C(Nc1ccc2c(c1)CN(S(=O)(=O)c1cccc(C(F)(F)F)c1)CCO2)c1c(F)cccc1Cl
- Efficacy [22]: -73%

- bioavailability [23]: 96%
- half-life [24]: > 4 h
- IC50 [18]: 102 nM
- IC50 [25]: 9.5 nM
- IC50 [26]: 120 nM
- IC50 [27]: 430 nM
- IC50 [28]: 1600 nM
- IC50 [29]: 28 nM
SMILES: COc1ccc2c(n1)CCN(C(=O)[C@H]1C[C@@H](CC(=O)O)C1)[C@H]2C(=O)Nc1cc(F)c2c(c1)CCC2(C)C

- IC50 [30]: 5 nM
SMILES: COc1nc2ccc([C@](O)(c3ccc(C)nc3C)c3cnnn3C)cc2c(Cl)c1Cc1ccc(C(F)(F)F)cc1
- inhibition in vivo at 60 mg/kg [31]: 78%
- inhibition in vivo at 30 mg/kg [32]: 46%
- inhibition in vivo at 10 mg/kg [33]: 32%

Continued, compound first:

SMILES: O=S(=O)(c1ccccc1)N1CCC(Cn2ncc3cc(-c4cn[nH]c4)ccc32)CC1
- IC50 [1]: < 10000 nM
- IC50 [2]: < 10000 nM
- IC50 [3]: < 10000 nM
- IC50 [4]: < 10000 nM

SMILES: CCS(=O)(=O)c1ccc(CNC(=O)c2cc3c(s2)C2(CCN([C@H](C)c4cnc(C(F)(F)F)nc4)CC2)O[C@@H](C)C3)nc1
- inhibition in vivo at 1000 mg/kg [5]: 75%
- IC50 [6]: 20 nM

SMILES: Cc1ccc(N(CC(C)C)S(=O)(=O)c2ccc3c(c2)[nH]c(=O)n3CC2CCOCC2)c(C)c1
- IC50 [7]: 19 nM

SMILES: CCS(=O)(=O)c1ccc(CNc2nc3c(C)nc(-c4c(C)ncnc4C4CC4)nc3n([C@@H](C)C3CC3)c2=O)nc1
- IC50 [16]: 60 nM

SMILES: Cc1ccc([C@H](NC(=O)Cc2ccc3oc([C@@H](O)c4c(C)noc4C)cc3c2)c2ccccc2)c(C)c1
- IC50 [19]: 5 nM
- IC50 [20]: 17 nM

SMILES: O=S(=O)(c1ccc(Cl)cc1)N1CCC(Cn2ccc3cc(-c4cn[nH]c4)ccc32)CC1
- IC50 [1]: < 10000 nM
- IC50 [2]: < 10000 nM
- IC50 [3]: < 10000 nM
- IC50 [4]: < 10000 nM

SMILES: O=S(=O)(c1ccccc1)N1CCC(Cn2ccc3nc(-c4cn[nH]c4)ccc32)CC1
- IC50 [1]: < 10000 nM
- IC50 [2]: < 10000 nM
- IC50 [3]: < 10000 nM
- IC50 [4]: < 10000 nM

Reference: ChEMBL document CHEMBL5260836, “Combating Autoimmune Diseases With Retinoic Acid Receptor-Related Orphan Receptor-γ (RORγ or RORc) Inhibitors: Hits and Misses” (J Med Chem, 2018)
